Key:
Format in all cases: physicochemical
[1] = absorption maximum in methylene chloride
[2] = order parameter S in liquid crystal ZLI 2452 (dichroic ratio by polarized absorbance); conditions: room temperature, in ZLI 2452
Procedure: The order parameter S was determined in accordance with the known equation [formula] in a commercial measurement cell of homogeneous edge orientation (polyimide). The dichroic ratio CR was determined by measuring the absorbences E^.parallel. (measurement with light polarized parallel to the preferential direction of the nematic phase) and E^.perp. (measurement with light polarized perpendicular to the preferential direction of the nematic phase) and applying the relationship [formula] the dye concentration being so chosen as to give an E^.parallel. within the range from 1 to 2. The measurements were carried out on an Hitachi U 3200 spectrophotometer.

[3] = solubility in liquid crystal ZLI 2452 (saturated solution, comparison of absorbances); conditions: room temperature, in ZLI 2452
Procedure: The solubility was determined as follows:
50 mg of the dye was stirred at room temperature into 1 ml of liquid crystal for 1 week, the saturated solution was centrifuged off the residue, and the solubility was determined by comparing the absorbences.

Row | λmax [nm] (CH2 Cl2) [1] | Order parameter S (at RT) [2] | Solubility L [%] (at RT) [3] | Compound
1 | 417 nm | 0.815 | 18.7% | CCCCC(CC)COc1ccc(N=Nc2ccc(N=Nc3ccc(N=Nc4ccc(OCc5ccccc5)cc4C)cc3)cc2)c(CC)c1 (stereo not drawn) [Example 1]
2 | 418 nm | 0.83 | 5.1% | CCCCCCCCOc1ccc(N=Nc2ccc(N=Nc3ccc(N=Nc4ccc(OCc5ccc(CCCCC)cc5)cc4C)cc3)cc2)c(CC)c1 [Example 2]
3 | 418 nm | 0.82 | 5.3% | CCCCCCCCOc1ccc(N=Nc2ccc(N=Nc3ccc(N=Nc4ccc(OCc5ccc(CCCCC)cc5)cc4CC)cc3)cc2)c(C)c1 [Example 3]
4 | 419 nm | 0.79 | 6.4% | CCCCCCCCOc1ccc(N=Nc2ccc(N=Nc3ccc(N=Nc4ccc(OCc5ccccc5)cc4CC)cc3)cc2)c(CC)c1 [Example 4]
5 | 418 nm | 0.79 | 3.5% | CCCCCCCCOc1ccc(N=Nc2ccc(N=Nc3ccc(N=Nc4ccc(OCc5ccc(OCCCCC)cc5)cc4CC)cc3)cc2)c(CC)c1 [Example 5]
6 | 443 nm | 0.81 | 2.0% | CCCCC(CC)COc1ccc(N=Nc2ccc(N=Nc3ccc(N=Nc4ccc(OCc5ccccc5)c5ccccc45)cc3)cc2)c(CC)c1 (stereo not drawn) [Example 9]
7 | 445 nm | 0.81 | 7.1% | CCCCC(CC)COc1ccc(N=Nc2ccc(N=Nc3ccc(N=Nc4ccc(OCc5ccccc5)cc4CC)cc3)cc2)c2ccccc12 (stereo not drawn) [Example 10]
8 | 437 nm | 0.79 | 3.4% | CCCCCCCCOc1ccc(N=Nc2ccc(N=Nc3ccc(N=Nc4ccc(OCc5ccc(OCCCCC)cc5)c5ccccc45)cc3)cc2)c(CC)c1 [Example 11]
9 | 441 nm | 0.79 | 2.4% | CCCCCCCCOc1ccc(N=Nc2ccc(N=Nc3ccc(N=Nc4ccc(OCc5ccc(CCCCC)cc5)c5ccccc45)cc3)cc2)c(CC)c1 [Example 12]
10 | 435 nm | 0.79 | 2.9% | CCCCCOc1ccc(COc2ccc(N=Nc3ccc(N=Nc4ccc(N=Nc5ccc(OCC(CC)CCCC)cc5CC)cc4)cc3)c3ccccc23)cc1 (stereo not drawn) [Example 13]
11 | 443 nm | 0.81 | 5.0% | CCCCCc1ccc(COc2ccc(N=Nc3ccc(N=Nc4ccc(N=Nc5ccc(OCC(CC)CCCC)cc5CC)cc4)cc3)c3ccccc23)cc1 (stereo not drawn) [Example 14]
12 | 535 nm | 0.81 | 2.0% | CCCCCCCCCCCCNc1ccc(N=Nc2ccc(N=Nc3ccc(N=Nc4ccc(OCCCCCCCC)cc4CC)cc3)cc2)c2ccccc12 [Example 15]
13 | 533 nm | 0.80 | 8.0% | CCCCCCCCCCCCNc1ccc(N=Nc2ccc(N=Nc3ccc(N=Nc4ccc(OCC(CC)CCCC)cc4CC)cc3)cc2)c2ccccc12 (stereo not drawn) [Example 16]
14 | 486 nm | 0.79 | 1.6% | CCCCC(CC)COc1ccc(N=Nc2ccc(N=Nc3ccc(N=Nc4ccc(OCc5ccccc5)c5ccccc45)cc3)c3ccccc23)c(CC)c1 (stereo not drawn) [Example 19]
15 | 489 nm | 0.80 | 1.3% | CCCCC(CC)COc1ccc(N=Nc2ccc(N=Nc3ccc(N=Nc4ccc(OCc5ccccc5)cc4CC)c4ccccc34)cc2)c2ccccc12 (stereo not drawn) [Example 20]
16 | 459 nm | 0.79 | 5.5% | CCCCC(CC)COc1ccc(N=Nc2ccc(N=Nc3ccc(N=Nc4ccc(OCc5ccccc5)cc4CC)c(OC)c3)cc2)c2ccccc12 (stereo not drawn) [Example 21]

— US4952678A, “Trisazo dyes” (BASF Aktiengesellschaft, priority 1986, dated 1990)
